# Measured values published in ChEMBL document CHEMBL4627246, “Pyroglutamide-Based P2X7 Receptor Antagonists Targeting Inflammatory Bowel Disease” (J Med Chem, 2020).
# Tested on: T47D
# Assay: Cytotoxicity against human T47D cells assessed as effect on cell growth at 10 uM incubated for 48 hrs by sulforhodamine B assay
# Assay type: cell-based
# Details: not given
row,Compound,Activity
1,COc1ccc(NC(=O)[C@@H]2C/C(=C\N(C)C)C(=O)N2)cc1,Non-Toxic
2,C[n+]1ccccc1C(=O)NCc1ccc(Cl)cc1Cl.[I-],Non-Toxic

# Tested on: HCC 2998
# Assay: Cytotoxicity against human HCC2998 cells assessed as effect on cell growth at 10 uM incubated for 48 hrs by sulforhodamine B assay
# Assay type: cell-based
# Details: hcc 2998, 48 h
row,Compound,Activity
1,COc1ccc(NC(=O)[C@@H]2C/C(=C\N(C)C)C(=O)N2)cc1,Non-Toxic
2,C[n+]1ccccc1C(=O)NCc1ccc(Cl)cc1Cl.[I-],Non-Toxic

# Tested on: SNB-75
# Assay: Cytotoxicity against human SNB75 cells assessed as effect on cell growth at 10 uM incubated for 48 hrs by sulforhodamine B assay
# Assay type: cell-based
# Details: snb-75, 48 h
row,Compound,Activity
1,COc1ccc(NC(=O)[C@@H]2C/C(=C\N(C)C)C(=O)N2)cc1,Non-Toxic
2,C[n+]1ccccc1C(=O)NCc1ccc(Cl)cc1Cl.[I-],Non-Toxic

# Tested on: OVCAR-8
# Assay: Cytotoxicity against human OVCAR8 cells assessed as effect on cell growth at 10 uM incubated for 48 hrs by sulforhodamine B assay
# Assay type: cell-based
# Details: ovcar-8, 48 h
row,Compound,Activity
1,COc1ccc(NC(=O)[C@@H]2C/C(=C\N(C)C)C(=O)N2)cc1,Non-Toxic
2,C[n+]1ccccc1C(=O)NCc1ccc(Cl)cc1Cl.[I-],Non-Toxic

# Tested on: MDA-MB-468
# Assay: Cytotoxicity against human MDA-MB-468 cells assessed as effect on cell growth at 10 uM incubated for 48 hrs by sulforhodamine B assay
# Assay type: cell-based
# Details: mda-mb-468, 48 h
row,Compound,Activity
1,COc1ccc(NC(=O)[C@@H]2C/C(=C\N(C)C)C(=O)N2)cc1,Non-Toxic
2,C[n+]1ccccc1C(=O)NCc1ccc(Cl)cc1Cl.[I-],Non-Toxic

# Tested on: NCI-H322M
# Assay: Cytotoxicity against human NCI-H322M cells assessed as effect on cell growth at 10 uM incubated for 48 hrs by sulforhodamine B assay
# Assay type: cell-based
# Details: not given
row,Compound,Activity
1,COc1ccc(NC(=O)[C@@H]2C/C(=C\N(C)C)C(=O)N2)cc1,Non-Toxic
2,C[n+]1ccccc1C(=O)NCc1ccc(Cl)cc1Cl.[I-],Non-Toxic

# Tested on: COLO 205
# Assay: Cytotoxicity against human COLO205 cells assessed as effect on cell growth at 10 uM incubated for 48 hrs by sulforhodamine B assay
# Assay type: cell-based
# Details: colo 205, 48 h
row,Compound,Activity
1,COc1ccc(NC(=O)[C@@H]2C/C(=C\N(C)C)C(=O)N2)cc1,Non-Toxic
2,C[n+]1ccccc1C(=O)NCc1ccc(Cl)cc1Cl.[I-],Non-Toxic

# Tested on: HT-29
# Assay: Cytotoxicity against human HT-29 cells assessed as effect on cell growth at 10 uM incubated for 48 hrs by sulforhodamine B assay
# Assay type: cell-based
# Details: ht-29, 48 h
row,Compound,Activity
1,COc1ccc(NC(=O)[C@@H]2C/C(=C\N(C)C)C(=O)N2)cc1,Non-Toxic
2,C[n+]1ccccc1C(=O)NCc1ccc(Cl)cc1Cl.[I-],Non-Toxic

# Tested on: IGROV-1
# Assay: Cytotoxicity against human IGROV1 cells assessed as effect on cell growth at 10 uM incubated for 48 hrs by sulforhodamine B assay
# Assay type: cell-based
# Details: igrov-1, 48 h
row,Compound,Activity
1,COc1ccc(NC(=O)[C@@H]2C/C(=C\N(C)C)C(=O)N2)cc1,Non-Toxic
2,C[n+]1ccccc1C(=O)NCc1ccc(Cl)cc1Cl.[I-],Non-Toxic

# Tested on: NCI-H522
# Assay: Cytotoxicity against human NCI-H522 cells assessed as effect on cell growth at 10 uM incubated for 48 hrs by sulforhodamine B assay
# Assay type: cell-based
# Details: nci-h522, 48 h
row,Compound,Activity
1,COc1ccc(NC(=O)[C@@H]2C/C(=C\N(C)C)C(=O)N2)cc1,Non-Toxic
2,C[n+]1ccccc1C(=O)NCc1ccc(Cl)cc1Cl.[I-],Non-Toxic

# Tested on: UACC-62
# Assay: Cytotoxicity against human UACC62 cells assessed as effect on cell growth at 10 uM incubated for 48 hrs by sulforhodamine B assay
# Assay type: cell-based
# Details: uacc-62, 48 h
row,Compound,Activity
1,COc1ccc(NC(=O)[C@@H]2C/C(=C\N(C)C)C(=O)N2)cc1,Non-Toxic
2,C[n+]1ccccc1C(=O)NCc1ccc(Cl)cc1Cl.[I-],Non-Toxic

# Tested on: SNB-19
# Assay: Cytotoxicity against human SNB19 cells assessed as effect on cell growth at 10 uM incubated for 48 hrs by sulforhodamine B assay
# Assay type: cell-based
# Details: snb-19, 48 h
row,Compound,Activity
1,COc1ccc(NC(=O)[C@@H]2C/C(=C\N(C)C)C(=O)N2)cc1,Non-Toxic
2,C[n+]1ccccc1C(=O)NCc1ccc(Cl)cc1Cl.[I-],Non-Toxic

# Tested on: NCI-H23
# Assay: Cytotoxicity against human NCI-H23 cells assessed as effect on cell growth at 10 uM incubated for 48 hrs by sulforhodamine B assay
# Assay type: cell-based
# Details: nci-h23, 48 h
row,Compound,Activity
1,COc1ccc(NC(=O)[C@@H]2C/C(=C\N(C)C)C(=O)N2)cc1,Non-Toxic
2,C[n+]1ccccc1C(=O)NCc1ccc(Cl)cc1Cl.[I-],Non-Toxic

# Tested on: HCT-116
# Assay: Cytotoxicity against human HCT116 cells assessed as effect on cell growth at 10 uM incubated for 48 hrs by sulforhodamine B assay
# Assay type: cell-based
# Details: hct-116, 48 h
row,Compound,Activity
1,COc1ccc(NC(=O)[C@@H]2C/C(=C\N(C)C)C(=O)N2)cc1,Non-Toxic
2,C[n+]1ccccc1C(=O)NCc1ccc(Cl)cc1Cl.[I-],Non-Toxic

# Tested on: TK-10
# Assay: Cytotoxicity against human TK10 cells assessed as effect on cell growth at 10 uM incubated for 48 hrs by sulforhodamine B assay
# Assay type: cell-based
# Details: tk-10, 48 h
row,Compound,Activity
1,COc1ccc(NC(=O)[C@@H]2C/C(=C\N(C)C)C(=O)N2)cc1,Non-Toxic
2,C[n+]1ccccc1C(=O)NCc1ccc(Cl)cc1Cl.[I-],Non-Toxic

# Tested on: PC-3
# Assay: Cytotoxicity against human PC3 cells assessed as effect on cell growth at 10 uM incubated for 48 hrs by sulforhodamine B assay
# Assay type: cell-based
# Details: pc-3, 48 h
row,Compound,Activity
1,COc1ccc(NC(=O)[C@@H]2C/C(=C\N(C)C)C(=O)N2)cc1,Non-Toxic
2,C[n+]1ccccc1C(=O)NCc1ccc(Cl)cc1Cl.[I-],Non-Toxic

# Tested on: NCI/ADR-RES
# Assay: Cytotoxicity against human NCI/ADR-RES cells assessed as effect on cell growth at 10 uM incubated for 48 hrs by sulforhodamine B assay
# Assay type: cell-based
# Details: not given
row,Compound,Activity
1,COc1ccc(NC(=O)[C@@H]2C/C(=C\N(C)C)C(=O)N2)cc1,Non-Toxic
2,C[n+]1ccccc1C(=O)NCc1ccc(Cl)cc1Cl.[I-],Non-Toxic

# Tested on: HOP-92
# Assay: Cytotoxicity against human HOP92 cells assessed as effect on cell growth at 10 uM incubated for 48 hrs by sulforhodamine B assay
# Assay type: cell-based
# Details: hop-92, 48 h
row,Compound,Activity
1,COc1ccc(NC(=O)[C@@H]2C/C(=C\N(C)C)C(=O)N2)cc1,Non-Toxic
2,C[n+]1ccccc1C(=O)NCc1ccc(Cl)cc1Cl.[I-],Non-Toxic

# Tested on: U-251
# Assay: Cytotoxicity against human U251 cells assessed as effect on cell growth at 10 uM incubated for 48 hrs by sulforhodamine B assay
# Assay type: cell-based
# Details: u-251, 48 h
row,Compound,Activity
1,COc1ccc(NC(=O)[C@@H]2C/C(=C\N(C)C)C(=O)N2)cc1,Non-Toxic
2,C[n+]1ccccc1C(=O)NCc1ccc(Cl)cc1Cl.[I-],Non-Toxic

# Tested on: Malme-3M
# Assay: Cytotoxicity against human MALME-3M cells assessed as effect on cell growth at 10 uM incubated for 48 hrs by sulforhodamine B assay
# Assay type: cell-based
# Details: not given
row,Compound,Activity
1,COc1ccc(NC(=O)[C@@H]2C/C(=C\N(C)C)C(=O)N2)cc1,Non-Toxic
2,C[n+]1ccccc1C(=O)NCc1ccc(Cl)cc1Cl.[I-],Non-Toxic
